# Data reported in patent US6472351B1, “Herbicide” (Barrier Biotech Limited, priority 1998, dated 2002).
# System: ragwort
# Test: Replicated field trials 1997, ragwort control 0-10 score versus 2,4-D (Example 3)
# Assay type: in vivo, Senecio Jacobaea
# Conditions: for 0-10 Score, 0 = No Control; T1 + 42 / 0-10 Score, 0 = No Control; T1 + 14 / 0-10 Score, 0 = No Control; T1 + 28 / 0-10 Score, 0 = No Control; T1 + 1 / 0-10 Score, 0 = No Control; T1 + 7: l/ha 2,4-D standard; for 0-10 Score, 0 = No Control; T1 + 42: scored 02/09/97; for 0-10 Score, 0 = No Control; T1 + 28: scored 19/08/97
# Description: In 1997 properly replicated field evaluations of the efficacy of the composition according to the invention as a herbicide were carried out and 3 trial sites were located where the composition was tested against the standard product, 2, 4-D applied at a dose of 3.0 l/ha to individual plants. The trials were designed as a randomised complete block but within each “plot” area, 10 ragwort plants for each growth stage (rosette & flowing stems) were tagged with numbered markers and these were treated with the appropriate compound. […] This method reduced the risk of excessive run-off if eight squirts had been applied in a single application. […] As with the larger plants in the laboratory tests, some degree of re-growth was noted on a few of the treated plants. After the last assessments had been made, some of these plants were retreated with a second application of BH 99 and the effect was compared with untreated plants after a further 4 weeks which data is presented in the results section below.
# In all evaluations the composition BH 99 was used comprising:
# was applied to plants using the same equipment. The ready-mixed formulated product was contained in a 5 liter polyethylene bottle to which was fitted with a Frapak CHS-5A trigger sprayer and dip tube. This equipment delivers 2.4 mls of spray for each full squeeze of the trigger and provides a very convenient method of application.
# In the replicated field trials in 1997, the 2, 4-D treatments were applied using a Hardy (backpack) small plot sprayer fitted with a lance carrying a single F110-03 nozzle. Individual plants were sprayed at a forward speed of 1.6 m/s and a pressure of 2 bar to give an application volume of 200 l/ha. Dose of 2, 4-D applied by this method was 3.0 l/ha.
# Replicated Field Trials, 1997: The efficacy of BH 99 was tested against ragwort at the rosette and flowering stages at Shropham and Barnham sites but only against the rosette stage at Hockham since no flowering stems were presented.
# [1] = Barnham, Flower, applied T1 23/07/97
# [2] = Barnham, Rosette, applied T1 23/07/97
# [3] = Hockham, Rosette, applied T1 25/07/97
# [4] = flowering stage, standard at 3.0 l/ha, mean of n = 2 sites, 0-10 score
# [5] = rosette stage, standard at 3.0 l/ha, mean of n = 3 sites, 0-10 score
structure (smiles),measurement,setting,value
"O=C(O)COc1ccc(Cl)cc1Cl [2,4-D, 2,4-D]",Time until full activity manifest,"3.0 l/ha, days after application",42 days
same,"0-10 Score, 0 = No Control; T1 + 42",[1],9.4
same,"0-10 Score, 0 = No Control; T1 + 14","Barnham, Flower, applied T1 23/07/97, scored 08/08/97",7.3
same,"0-10 Score, 0 = No Control; T1 + 28",[1],8.9
same,"0-10 Score, 0 = No Control; T1 + 1","Barnham, Flower, applied T1 23/07/97, scored 24/07/97",0.3
same,"0-10 Score, 0 = No Control; T1 + 7","Barnham, Flower, applied T1 23/07/97, scored 30/07/97",1
same,"0-10 Score, 0 = No Control; T1 + 42",[2],9.9
same,"0-10 Score, 0 = No Control; T1 + 14","Barnham, Rosette, applied T1 23/07/97, scored 08/08/97",4.8
same,"0-10 Score, 0 = No Control; T1 + 28",[2],9.1
same,"0-10 Score, 0 = No Control; T1 + 1","Barnham, Rosette, applied T1 23/07/97, scored 24/07/97",0.1
same,"0-10 Score, 0 = No Control; T1 + 7","Barnham, Rosette, applied T1 23/07/97, scored 30/07/97",0.8
same,"0-10 Score, 0 = No Control; T1 + 7","Hockham, Rosette, applied T1 25/07/97, scored 01/08/97",0.4
same,"0-10 Score, 0 = No Control; T1 + 42",[3],9.8
same,"0-10 Score, 0 = No Control; T1 + 14","Hockham, Rosette, applied T1 25/07/97, scored 07/08/97",0.8
same,"0-10 Score, 0 = No Control; T1 + 28",[3],5.2
same,"0-10 Score, 0 = No Control; T1 + 1","Hockham, Rosette, applied T1 25/07/97, scored 26/07/97",0.1
same,"Mean Score for Ragwort Control When Treated at the Flowering Stage, 1 DAT",[4],0.3
same,"Mean Score for Ragwort Control When Treated at the Flowering Stage, 7 DAT",[4],0.8
same,"Mean Score for Ragwort Control When Treated at the Flowering Stage, 14 DAT",[4],4.9
same,"Mean Score for Ragwort Control When Treated at the Flowering Stage, 28 DAT",[4],7.4
same,"Mean Score for Ragwort Control When Treated at the Flowering Stage, 42 DAT",[4],8.4
same,"Mean Score for Ragwort Control When Treated at the Rossette Stage, 1 DAT",[5],0.1
same,"Mean Score for Ragwort Control When Treated at the Rossette Stage, 7 DAT",[5],0.5
same,"Mean Score for Ragwort Control When Treated at the Rossette Stage, 14 DAT",[5],2.1
same,"Mean Score for Ragwort Control When Treated at the Rossette Stage, 28 DAT",[5],6.9
same,"Mean Score for Ragwort Control When Treated at the Rossette Stage, 42 DAT",[5],9.4
